Test results from PMC7481482, “Development of Anthraquinone Derivatives as Ectonucleoside Triphosphate Diphosphohydrolase (NTPDase) Inhibitors With Selectivity for NTPDase2 and NTPDase3” (Frontiers in Pharmacology, 2020).

How the values were obtained:
[1] = target: T1, human NTPDase2 (Homo sapiens, UniProt Q9Y5L3); test: Malachite green assay, human NTPDase2; format: biochemical; details: 100 µM ATP, COS-7 membrane preparation; for inhibition at 2 µM: 2 μM compound, read-out: % inhibition at 2 μM concentration, NTPDase2; for IC50: read-out: IC50 ± SEM, NTPDase2
T1 construct: expressed in transfected cells; host or cells: COS-7 cells (membrane preparation)
T1 sequence (Q9Y5L3 1-495): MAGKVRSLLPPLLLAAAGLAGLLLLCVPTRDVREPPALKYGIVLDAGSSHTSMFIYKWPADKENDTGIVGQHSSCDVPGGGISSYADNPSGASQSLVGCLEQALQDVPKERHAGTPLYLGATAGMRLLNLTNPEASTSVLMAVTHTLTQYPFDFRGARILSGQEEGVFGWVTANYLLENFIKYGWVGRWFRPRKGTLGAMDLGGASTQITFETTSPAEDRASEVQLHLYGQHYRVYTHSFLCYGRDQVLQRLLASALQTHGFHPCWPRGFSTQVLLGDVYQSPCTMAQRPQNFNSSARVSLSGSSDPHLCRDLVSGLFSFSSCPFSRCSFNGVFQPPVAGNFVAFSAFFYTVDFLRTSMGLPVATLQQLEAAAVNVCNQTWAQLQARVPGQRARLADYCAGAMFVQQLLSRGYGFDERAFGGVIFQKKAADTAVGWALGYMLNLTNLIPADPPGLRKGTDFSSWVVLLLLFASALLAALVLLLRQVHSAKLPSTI
Description: (§1) Membrane preparations expressing human NTPDase1, -2, -3, or -8, respectively, were obtained as previously described ([Sévigny et al., 1997]; [Cogan et al., 1999]; [Kukulski et al., 2005]; [Lecka et al., 2013]; [Lee et al., 2018]). Enzyme inhibition assays were performed using the malachite green assay in analogy to published procedures with some modifications ([Dou et al., 2018]). The reaction buffer contained 10 mM HEPES, 2 mM CaCl2, and 1 mM MgCl2 (pH 7.4) in a final volume of 50 μL in transparent 96-well half-area plates. The compounds were initially tested at a final concentration of 2 µM using a COS-7-cell membrane preparation expressing the appropriate NTPDase isoenzyme (protein amount: 143 ng for NTPDase1, 175 ng for NTPDase2, 152 ng for NTPDase3, and 175 ng for NTPDase8). Preincubated of the enzyme preparations was perfomred at 37°C in the presence or absence of test compounds with gentle shaking (Eppendorf Thermomixer comfort at 500 rpm) for 5 min. […] ([Kukulski et al., 2005]). After 15 min of incubation at 37°C with gentle shaking, the reaction was stopped by the addition of the detection reagents (20 µL malachite green solution, 0.6 mM, and 30 µL of ammonium molybdate solution, 20 mM, in 1.5 M sulfuric acid). The released inorganic phosphate was quantified after 20 min of gentle shaking at 25°C by measuring the absorption of the malachite green-phosphomolybdate complex at 600 nm using a BMG PheraStar FS plate reader (BMG Labtech GmbH, Ortenberg, Germany). The corrected absorption was calculated by subtracting the absorption of the negative control samples, which were incubated with previously denatured enzyme (90°C, 15 min). Full concentration-inhibition curves were determined with inhibitor concentrations ranging from 0.03 to 30 µM in the presence of 2% DMSO. Inhibition-type experiments were performed with 25, 50, 100, 150 and 200 µM ATP as substrate for NTPDase2 in the presence of inhibitor 20 (0, 0.25, 0.5, and 1 µM) and 25, 50, 100 and 150 µM ATP substrate for NTPDase3 and compound 42 (0.25, 0.5, and 1 µM). For all of the presented data, at least three independent experiments were performed, and IC50 values were calculated by GraphPad Prism 8 software.
(§2) Inhibition of human NTPDases was performed using the malachite green assay, which was established on a robotic system (Z’ factors > 0.70) ([Baykov et al., 1988]; [Fiene et al., 2015]). The malachite green assay enables the detection of the phosphate produced by the enzymatic hydrolysis of nucleotides. A fixed substrate concentration of 50 µM ATP for NTPDase1 and 100 µM for NTPDase2, -3, and -8 was employed. Test compounds were initially screened at a concentration of 2 μM. […] A total of 48 synthesized anthraquinone derivatives including 14 new compounds not previously described in the literature were evaluated for their inhibitory activity at human NTPDase1, -2, -3, and -8 (for results see Table 1).

[2] = target: T2, human NTPDase8 (Homo sapiens, UniProt Q5MY95); test: Malachite green assay, human NTPDase8; format: biochemical; details: 2 μM compound; 100 µM ATP; COS-7 membrane preparation; read-out: % inhibition at 2 μM concentration, NTPDase8
T2 construct: expressed in transfected cells; host or cells: COS-7 cells (membrane preparation)
T2 sequence (Q5MY95 1-495): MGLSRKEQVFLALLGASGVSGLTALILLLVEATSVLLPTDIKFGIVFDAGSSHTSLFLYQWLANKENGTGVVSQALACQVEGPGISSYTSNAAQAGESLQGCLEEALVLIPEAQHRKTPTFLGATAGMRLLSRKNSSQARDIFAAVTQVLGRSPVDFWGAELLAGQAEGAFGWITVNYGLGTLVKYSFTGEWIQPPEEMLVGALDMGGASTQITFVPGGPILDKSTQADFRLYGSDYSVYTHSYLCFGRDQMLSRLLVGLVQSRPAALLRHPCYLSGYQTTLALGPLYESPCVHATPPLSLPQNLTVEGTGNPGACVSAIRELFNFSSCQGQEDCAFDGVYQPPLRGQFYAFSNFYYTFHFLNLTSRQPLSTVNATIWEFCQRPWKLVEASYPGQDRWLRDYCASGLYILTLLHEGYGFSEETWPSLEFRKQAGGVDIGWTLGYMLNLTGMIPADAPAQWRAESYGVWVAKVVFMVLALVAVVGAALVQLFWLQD
Description: as §1, §2

[3] = target: T3, human NTPDase3 (Homo sapiens, UniProt O75355); test: Malachite green assay, human NTPDase3; format: biochemical; details: 100 µM ATP, COS-7 membrane preparation; for inhibition at 2 µM: 2 μM compound, read-out: % inhibition at 2 μM concentration, NTPDase3
T3 construct: expressed in transfected cells; host or cells: COS-7 cells (membrane preparation)
T3 sequence (O75355 1-529): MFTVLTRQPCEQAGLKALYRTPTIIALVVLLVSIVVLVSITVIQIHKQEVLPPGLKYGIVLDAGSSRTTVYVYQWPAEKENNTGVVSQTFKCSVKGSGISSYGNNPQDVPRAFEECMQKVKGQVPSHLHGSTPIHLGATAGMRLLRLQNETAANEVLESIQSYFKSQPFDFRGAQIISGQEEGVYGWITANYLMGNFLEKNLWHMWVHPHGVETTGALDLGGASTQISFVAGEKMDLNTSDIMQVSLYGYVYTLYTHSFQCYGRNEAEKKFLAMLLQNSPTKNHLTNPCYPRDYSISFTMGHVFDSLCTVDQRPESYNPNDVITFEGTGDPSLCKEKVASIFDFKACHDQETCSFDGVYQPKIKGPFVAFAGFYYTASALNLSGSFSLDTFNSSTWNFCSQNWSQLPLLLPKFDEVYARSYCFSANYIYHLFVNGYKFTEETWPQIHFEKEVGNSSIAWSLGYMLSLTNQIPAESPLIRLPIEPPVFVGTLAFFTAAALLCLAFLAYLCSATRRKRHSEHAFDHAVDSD
Description: as §1, §2

[4] = target: T4, human NTPDase1 (Homo sapiens, UniProt P49961); test: Malachite green assay, human NTPDase1; format: biochemical; details: 2 μM compound; 50 µM ATP; COS-7 membrane preparation; read-out: % inhibition at 2 μM concentration, NTPDase1
T4 construct: expressed in transfected cells; host or cells: COS-7 cells (membrane preparation)
T4 sequence (P49961 1-510): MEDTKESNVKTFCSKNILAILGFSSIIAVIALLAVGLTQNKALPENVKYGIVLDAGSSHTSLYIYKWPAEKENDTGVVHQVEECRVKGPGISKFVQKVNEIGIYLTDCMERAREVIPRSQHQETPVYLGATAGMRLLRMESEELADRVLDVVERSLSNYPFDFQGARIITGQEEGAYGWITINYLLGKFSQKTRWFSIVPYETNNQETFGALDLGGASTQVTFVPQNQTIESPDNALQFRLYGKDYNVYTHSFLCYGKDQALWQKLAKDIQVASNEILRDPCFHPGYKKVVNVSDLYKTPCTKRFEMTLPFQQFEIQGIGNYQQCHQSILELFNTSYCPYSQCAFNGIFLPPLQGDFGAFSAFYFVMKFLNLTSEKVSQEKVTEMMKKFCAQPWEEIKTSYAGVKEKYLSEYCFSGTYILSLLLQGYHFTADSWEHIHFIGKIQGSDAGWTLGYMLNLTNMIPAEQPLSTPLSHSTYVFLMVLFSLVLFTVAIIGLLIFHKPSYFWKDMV
Description: as §1, §2

SMILES	inhibition at 2 µM [1] [%]	inhibition at 2 µM [2] [%]	inhibition at 2 µM [3] [%]	melting point [°C]	inhibition at 2 µM [4] [%]	IC50 ([3]; read-out: IC50 ± SEM, NTPDase3) [nM]	IC50 [1] [nM]
Nc1c(S(=O)(=O)[O-])cc(Nc2cccc(I)c2)c2c1C(=O)c1ccccc1C2=O.[Na+] [Compound 23, Sodium 1-amino-4-(3-iodophenylamino)-9,10-dioxo-9,10-dihydroanthracene-2-sulfonate]	21	4	2	> 300	0	–	–
Nc1c(S(=O)(=O)[O-])cc(Nc2ccccc2CO)c2c1C(=O)c1ccccc1C2=O.[Na+] [Compound 27, Sodium 1-amino-4-(2-(hydroxymethyl)phenylamino)-9,10-dioxo-9,10-dihydroanthracene-2-sulfonate]	12	4	11	> 300	-1	–	–
Nc1c(S(=O)(=O)[O-])cc(Nc2cccc(CO)c2)c2c1C(=O)c1ccccc1C2=O.[Na+] [Compound 28, Sodium 1-amino-4-(3-(hydroxymethyl)phenylamino)-9,10-dioxo-9,10-dihydroanthracene-2-sulfonate]	7	1	-9	> 300	-2	–	–
Nc1c(S(=O)(=O)[O-])cc(Nc2ccc(CO)cc2)c2c1C(=O)c1ccccc1C2=O.[Na+] [Compound 29, Sodium 1-amino-4-(4-(hydroxymethyl)phenylamino)-9,10-dioxo-9,10-dihydroanthracene-2-sulfonate]	5	-4	-3	> 300	-4	–	–
Nc1c(S(=O)(=O)[O-])cc(Nc2cccc(CC(=O)O)c2)c2c1C(=O)c1ccccc1C2=O.[Na+] [Compound 30, Sodium 1-amino-4-(3-(carboxymethyl)phenylamino)-9,10-dioxo-9,10-dihydroanthracene-2-sulfonate]	7	-11	–	> 300	-6	1520 ± 280	–
Nc1c(S(=O)(=O)[O-])cc(Nc2cccc(Cl)c2Cl)c2c1C(=O)c1ccccc1C2=O.[Na+] [Compound 34, Sodium 1-amino-4-(2,3-dichlorophenylamino)-9,10-dioxo-9,10-dihydroanthracene-2-sulfonate]	16	7	-2	> 300	1	–	–
Nc1c(S(=O)(=O)[O-])cc(Nc2cccc(F)c2C(=O)O)c2c1C(=O)c1ccccc1C2=O.[Na+] [Compound 35, Sodium 1-amino-4-(2-carboxy-3-fluorophenylamino)-9,10-dioxo-9,10-dihydroanthracene-2-sulfonate]	-3	-10	32	> 300	-21	–	–
Nc1c(S(=O)(=O)[O-])cc(Nc2ccc(O)cc2F)c2c1C(=O)c1ccccc1C2=O.[Na+] [Compound 37, Sodium 1-amino-4-(2-fluoro-4-hydroxyphenylamino)-9,10-dioxo-9,10-dihydroanthracene-2-sulfonate]	5	-6	-12	> 300	-8	–	–
Nc1c(S(=O)(=O)[O-])cc(Nc2cccc(Sc3ccccc3)c2)c2c1C(=O)c1ccccc1C2=O.[Na+] [Compound 41, Sodium 1-amino-4-(3-(phenylsulfanyl)phenylamino)-9,10-dioxo-9,10-dihydroanthracene-2-sulfonate]	–	6	10	> 300	1	–	984 ± 327
Nc1c(S(=O)(=O)[O-])cc(Nc2ccc(Sc3ccc(Cl)cc3)cc2)c2c1C(=O)c1ccccc1C2=O.[Na+] [Compound 45, Sodium 1-amino-4-[4-(4-chlorophenylthio)phenylamino]-9,10-dioxo-9,10-dihydroanthracene-2-sulfonate]	–	21	42	> 300	52	–	1080 ± 80
